Where two headings read alike, the source gives them in different places.
Target: T1, full-length NS3/NS4A-2 (HCV NS3 protease) (Hepatitis C virus genotype 1a, UniProt P27958)
T1 construct: Recombinant E. coli or Baculovirus full-length NS3 was diluted to 3.33 μM with assay buffer; made in house; host or cells: E. coli or baculovirus (BV) expression system
Experiment: NS3-NS4 protease assay / NS3 inhibition assay (RETS1 substrate, fluorescence kinetic read)
Format: biochemical
Conditions: read-out: NS3-NS4 IC50
Method: NS3 complex formation with NS4A-2.
Recombinant E. coli or Baculovirus full-length NS3 was diluted to 3.33 μM with assay buffer and transferred material to an eppendorf tube and place in water bath in 4° C. refrigerator. The appropriate amount of NS4A-2 to 8.3 mM in assay buffer was added to equal the volume of NS3 in step 2.1.1 (conversion factor—3.8 mg/272 μL assay buffer). The material was transferred to an eppendorf tube and place in water bath in 4° C. refrigerator.
After equilibration to 4° C., equal volumes of NS3 and NS4A-2 solutions were combined in an eppendorf tube, mix gently with a manual pipettor, and incubate mixture for 15 minutes in the 4° C. water bath. Final concentrations in the mixture are 1.67 μM NS3, 4.15 mM NS4A-2 (2485-fold molar excess NS4A-2).
After 15 minutes at 4° C., the NS3/NS4A-2 eppendorf tube was removed and place it in a room temperature water bath for 10 minutes. NS3/NS4A-2 was alliquoted at appropriate volumes and store at −80° C. (E. coli NS3 run at 2 nM in assay, aliquot at 25 μL. BV NS3 run at 3 nM in assay, aliquot at 30 μL).
Sample compounds were dissolved to 10 mM in DMSO then diluted to 2.5 mM (1:4) in DMSO. Typically, compounds were added to an assay plate at 2.5 mM concentration, yielding upon dilution a starting concentration of 50 microM in the assay inhibition curve. Compounds were serial diluted in assay buffer to provide test solutions at lower concentrations.
The E. coli. NS3/NS4A-2 was diluted to 4 nM NS3 (1:417.5 of 1.67 μM stock−18 μL 1.67 μM stock+7497 μL assay buffer). The BV NS3/NS4A-2 was diluted to 6 nM NS3 (1:278.3 of 1.67 μM stock−24 μL 1.67 μM stock+6655 μL assay buffer). Using the manual multichannel pipettor, careful not to introduce bubbles into the plate, add 50 μL assay buffer to wells A01-H01 of a black Costar 96-well polypropylene storage plate.
Using the manual multichannel pipettor, careful not to introduce bubbles into the plate, add 50 μL of diluted NS3/NS4A-2 from step 2.2.6 to wells A02-H12 of plate in step 2.2.7. Using the manual multichannel pipettor, careful not to introduce bubbles into the plate, transfer 25 μL of the wells in drug dilution plate in step 2.2.5 to corresponding wells in assay plate in step 2.2.8. Change tips on multichannel pipettor for each row of compounds transferred. Using the manual multichannel pipettor, careful not to introduce bubbles into the plate, mix the wells from the assay plate in step 2.2.9 by aspirating and dispensing 35 μL of the 75 μL in each well five times. Change tips on multichannel pipettor for each row of wells mixed. Cover plate with a polystyrene plate lid and pre-incubate the plate from step 2.2.10 containing NS3 protease and sample compounds 10 minutes at room temperature. While plate from step 2.2.11 is pre-incubating, dilute RETS1 substrate in a 15 mL polypropylene centrifuge tube. Dilute RETS1 substrate to 8 μM (1:80.75 of 646 μM stock−65 μL 646 μM stock+5184 μL assay buffer).
After the plate in step is done pre-incubating, and using the manual multichannel, add 25 μL of substrate to all wells on the plate. Quickly mix the plate as in step 2.2.10, mixing 65 μL of the 100 μL in the wells.
Read the plate in kinetic mode on the Molecular Devices SpectraMax Gemini XS plate reader. Reader settings: Read time: 30 minutes, Interval: 36 seconds, Reads: 51, Excitation λ: 335 nm, Emission λ: 495 nm, cutoff: 475 nm, Automix: off, Calibrate: once, PMT: high, Reads/well: 6, Vmax pts: 21 or 28/51 depending on length of linearity of reaction
IC50 s are determined using a four parameter curve fit equation, and converted to Ki's using the following Km's: • Full-length E. coli NS3—2.03 μM • Full-length BV NS3—1.74 μM where Ki=IC50/(1+[S]/Km)) • Quantitation by ELISA of the selectable marker protein, Neomycin phosphotransferase II (NPTII) in the HCV Sub-Genomic Replicon, GS4.3

[1] = recombinant E. coli or Baculovirus full-length NS3 with NS4A-2

T1 sequence (P27958 1027-1657): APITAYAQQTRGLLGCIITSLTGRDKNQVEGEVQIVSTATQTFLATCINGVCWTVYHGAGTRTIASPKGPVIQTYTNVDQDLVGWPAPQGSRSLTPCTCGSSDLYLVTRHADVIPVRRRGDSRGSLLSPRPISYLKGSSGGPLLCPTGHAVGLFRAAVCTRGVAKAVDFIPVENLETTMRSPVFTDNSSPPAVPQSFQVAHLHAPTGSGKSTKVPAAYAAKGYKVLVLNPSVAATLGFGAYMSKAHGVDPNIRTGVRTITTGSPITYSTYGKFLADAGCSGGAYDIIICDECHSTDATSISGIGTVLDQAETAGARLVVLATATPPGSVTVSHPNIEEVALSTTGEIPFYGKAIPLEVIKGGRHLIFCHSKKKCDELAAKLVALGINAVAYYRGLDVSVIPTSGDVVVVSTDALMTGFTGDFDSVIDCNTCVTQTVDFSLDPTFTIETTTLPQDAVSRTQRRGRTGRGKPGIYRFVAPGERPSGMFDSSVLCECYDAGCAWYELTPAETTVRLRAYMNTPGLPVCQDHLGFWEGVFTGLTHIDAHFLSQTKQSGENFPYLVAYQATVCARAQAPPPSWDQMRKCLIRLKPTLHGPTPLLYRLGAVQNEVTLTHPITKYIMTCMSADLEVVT

Compound	IC50 [1] [µM]	also measured
COc1cccc(S(=O)(=O)NC(=O)[C@@]23C[C@H]2/C=C\CCCCC[C@H](NC(=O)OC(C)(C)C)C(=O)N2CCC[C@H]2C(=O)N3)c1 [Compound 2116]	< 10	
CN(C)CCNC(=O)[C@@]12C[C@H]1/C=C\CCCCC[C@H](NC(=O)OC(C)(C)C)C(=O)N1C[C@H](OC(=O)N3Cc4cccc(F)c4C3)C[C@H]1C(=O)N2 [Compound 608]	> 10	
CC(C)(C)OC(=O)NC1CCCCCCCC=CC2CC2(C(=O)NS(=O)(=O)C(F)(F)F)NC(=O)C2CCCN2C1=O (stereo not drawn) [Compound 2107]	< 1	
CC(C)(C)OC(=O)N[C@H]1CCCCC/C=C\[C@@H]2C[C@@]2(C(=O)NS(=O)(=O)c2ccc(Cl)s2)NC(=O)[C@@H]2CCCN2C1=O [Compound 2132]	< 10	
Cc1ccc(NS(=O)(=O)NC(=O)[C@@]23C[C@H]2/C=C\CCCCC[C@H](NC(=O)OC(C)(C)C)C(=O)N2CCC[C@H]2C(=O)N3)cc1 [Compound 2243]	< 1	
CC(=O)N[C@H]1CCCCC/C=C\[C@@H]2C[C@@]2(C(=O)NS(=O)(=O)C2CC2)NC(=O)[C@@H]2CCCN2C1=O [Compound 316]	< 10	
CC(C)(C)OC(=O)N[C@H]1CCCCC/C=C\[C@@H]2C[C@@]2(C(=O)NS(=O)(=O)c2cc(Cl)sc2Cl)NC(=O)[C@@H]2CCCN2C1=O [Compound 2126]	< 10	
CC(C)(C)OC(=O)N[C@H]1CCCCC/C=C\[C@@H]2C[C@@]2(C(=O)NS(=O)(=O)c2cc3ccccc3s2)NC(=O)[C@@H]2CCCN2C1=O [Compound 307]	< 10	
CC(C)(C)OC(=O)N[C@H]1CCCCC/C=C\[C@@H]2C[C@@]2(C(=O)NS(=O)(=O)c2ccc(Br)cc2)NC(=O)[C@@H]2CCCN2C1=O [Compound 2131]	< 10	
O=C1N[C@]2(C(=O)NS(=O)(=O)C3CC3)C[C@H]2/C=C\CCCCC[C@H](Nc2c(N3C4CCC3CC4)c(=O)c2=O)C(=O)N2C[C@H](OC(=O)N3Cc4cccc(F)c4C3)C[C@@H]12 [Compound 199]	< 0.1	
CC(C)(C)OC(=O)N[C@H]1CCCCC/C=C\[C@@H]2C[C@@]2(C(=O)N[S@@+]([O-])C(C)(C)C)NC(=O)[C@@H]2C[C@@H](OC(=O)N3Cc4ccccc4C3)CN2C1=O [Compound 2601, (1S,4R,6S,14S,18R)-1,3-Dihydro-isoindole-2-carbonyloxylic acid 14-tert-butoxycarbonylamino-4-((S)-2-methylpropane-2-sulfinyl)aminocarbonyl-2,15-dioxo-3,16-diaza-tricyclo[14.3.0.0^4,6]nonadec-7-ene-18-yl ester]		IC50 (Table 25): > 10 µM
CC(C)(C)OC(=O)N[C@H]1CCCCC/C=C\[C@@H]2C[C@@]2(CNS(=O)(=O)C2CC2)NC(=O)[C@@H]2C[C@@H](OC(=O)N3Cc4cccc(F)c4C3)CN2C1=O [Compound 154]	< 10	
COCC1(S(=O)(=O)NC(=O)[C@@]23C[C@H]2/C=C\CCCCC[C@H](NC(=O)OC(C)(C)C)C(=O)N2CCC[C@H]2C(=O)N3)CC1 [Compound 302]	< 10	
CC(C)(C)OC(=O)N[C@H]1CCCCC/C=C\[C@@H]2C[C@@]2(C(=O)NS(=O)(=O)c2cccc(Br)c2)NC(=O)[C@@H]2CCCN2C1=O [Compound 2112]	< 10	
CC(C)(C)OC(=O)N[C@H]1CCCCC/C=C\[C@@H]2C[C@@]2(C(=O)NS(=O)(=O)NCCc2cccc3ccccc23)NC(=O)[C@@H]2CCCN2C1=O [Compound 422]	> 10	
CC(C)(C)OC(=O)N[C@H]1CCCCC/C=C\[C@@H]2C[C@@]2(C(=O)NS(=O)(=O)NC2CC2)NC(=O)[C@@H]2CCCN2C1=O [Compound 2201]	< 1	
CC(C)(C)OC(=O)N[C@H]1CCCCC/C=C\[C@@H]2C[C@@]2(C(=O)NS(=O)(=O)/C=C/c2ccccc2)NC(=O)[C@@H]2CCCN2C1=O [Compound 2125]	< 1	

Compound	IC50 [1] [µM]	also measured
Cc1ccc([S@+]([O-])NC(=O)[C@@]23C[C@H]2/C=C\CCCCC[C@H](NC(=O)OC(C)(C)C)C(=O)N2CCC[C@H]2C(=O)N3)cc1 [Compound 2402]	< 0.1	
COc1cccc(S(=O)(=O)NC(=O)[C@@]23C[C@H]2/C=C\CCCCC[C@H](NC(=O)OC2CCCC2)C(=O)N2C[C@H](OC(=O)N4CCc5ccccc5C4)C[C@H]2C(=O)N3)c1 [Compound 188]	< 0.1	
CC(C)(C)OC(=O)N[C@H]1CCCCC/C=C\[C@@H]2C[C@@]2(C(=O)NS(=O)(=O)OCCc2ccccc2)NC(=O)[C@@H]2CCCN2C1=O [Compound 801]	< 10	
CC(C)(C)OC(=O)N[C@H]1CCCCC/C=C\[C@@H]2C[C@@]2(C(=O)NS(=O)(=O)NC2(C#N)CC2)NC(=O)[C@@H]2CCCN2C1=O [Compound 2212]	< 1	
CC(C)(C)OC(=O)N[C@H]1CCCCC/C=C\[C@@H]2C[C@@]2(C(=O)NS(=O)(=O)C2CCCCC2)NC(=O)[C@@H]2CCCN2C1=O [Compound 2121]	< 1	
CC(C)(C)OC(=O)N[C@H]1CCCCC/C=C\[C@@H]2C[C@@]2(C(=O)NS(=O)(=O)NCc2ccccc2)NC(=O)[C@@H]2CCCN2C1=O [Compound 2232]	< 10	
CS(=O)(=O)NC(=O)[C@@]12C[C@H]1/C=C\CCCCC[C@H](NC(=O)OC1CCCC1)C(=O)N1Cc3ccc(Oc4cccc(Cl)c4)cc3CC1C(=O)N2 (stereo partly drawn) [Compound 2003, Cyclopentyl (1aS,9S,19aR,Z)-15-(3-chlorophenoxy)-19a-(methylsulfonylcarbamoyl)-10,18-dioxo-1a,4,5,6,7,8,9,10,12,17,17a,18,19,19a-tetradecahydro-1H-11,14-diaza-bicyclo[13.1.0]hexadeca-1(15), 2-dieno[11,12-b]isoquinolin-9-ylcarbamate]	< 10	
CC(C)(C)OC(=O)N[C@H]1CCCCC/C=C\[C@@H]2C[C@@]2(C(=O)NCC(O)(C(F)(F)F)C(F)(F)F)NC(=O)[C@@H]2CCCN2C1=O [Compound 503]	> 10	
COc1ccccc1S(=O)(=O)NC(=O)[C@@]12C[C@H]1/C=C\CCCCC[C@H](NC(=O)OC(C)(C)C)C(=O)N1CCC[C@H]1C(=O)N2 [Compound 2122]	< 1	
CC(C)(C)OC(=O)N[C@H]1CCCCC/C=C\[C@@H]2C[C@@]2(C(=O)NS(=O)(=O)Nc2ccc(C#N)cc2)NC(=O)[C@@H]2CCCN2C1=O [Compound 2241]	< 1	
Cc1cc(Cl)cc(Cl)c1S(=O)(=O)NC(=O)[C@@]12C[C@H]1/C=C\CCCCC[C@H](NC(=O)OC(C)(C)C)C(=O)N1CCC[C@H]1C(=O)N2 [Compound 2123]	< 1	
CC(C)(C)OC(=O)N[C@H]1CCCCC/C=C\[C@@H]2C[C@@]2(C(=O)NS(=O)(=O)c2cccc(Cl)c2)NC(=O)[C@@H]2CCCN2C1=O [Compound 2110]	< 10	
Cc1noc(C)c1S(=O)(=O)NC(=O)[C@@]12C[C@H]1/C=C\CCCCC[C@H](NC(=O)OC(C)(C)C)C(=O)N1CCC[C@H]1C(=O)N2 [Compound 308]	> 10	
CC(C)(C)OC(=O)N[C@H]1CCCCC/C=C\[C@@H]2C[C@@]2(C(=O)NS(=O)(=O)N(CCC#N)C2CC2)NC(=O)[C@@H]2CCCN2C1=O [Compound 2210]	< 1	
CCCNC(=O)[C@@]12C[C@H]1/C=C\CCCCC[C@H](NC(=O)OC(C)(C)C)C(=O)N1CCC[C@H]1C(=O)N2 [Compound 2319]		IC50 (Table 22): < 0.1 µM
CN(c1ccccc1)S(=O)(=O)NC(=O)[C@@]12C[C@H]1/C=C\CCCCC[C@H](NC(=O)OC(C)(C)C)C(=O)N1CCC[C@H]1C(=O)N2 [Compound 2227]	< 10	

Reference: patent US7829665B2 (priority 2005, dated 2010)
